From patent publication US3984548A, “Substituted pyrido[1,2,3,-de]-1,4-benzoxazines as bactericides” (Riker Laboratories, Inc., priority 1974, dated 1976)

Columns and labels:
Assay type in all cases: cell-based
Parameters in all cases: key: +: active; -: inactive
Conditions in all cases: agar plates, 1 to 100 milligrams/liter
Streptococcus Sp = experiment: standard plate dilution method, Streptococcus sp.
Description: (§1) The culture medium employed permits susceptibility testing of fastidious microorganisms towards antibiotics, sulfonamides and other chemotherapeutic agents. Tryptone soy agar (oxoid) of the following composition is the culture medium. In the test procedure, the amount of a compound required to give complete inhibition or no inhibition of the microbial growth on the agar plates was determined. The compound selected for evaluation is added to the agar medium to give concentrations of one, ten and one hundred milligrams per liter. A series of plates with these concentrations is prepared. Plates containing agar alone are included as controls. Ten percent horse serum is added to one series of such plates. Aliquots of broth culture of each of nine species of microorganisms are innoculated onto the agar plates containing the various compound concentrations and onto the control plates. The plates are incubated at 37° C. in a 10 percent carbon dioxide atmosphere for 18 to 25 hours. The microbial growth on each plate is read visually, and minimal inhibitory concentrations are recorded.

Staphylococcus aureus = experiment: standard plate dilution method, Staphylococcus aureus
Description: as §1

Bacillus Subtilus = experiment: standard plate dilution method, Bacillus subtilus
Description: as §1

Escherichia coli = experiment: standard plate dilution method, Escherichia coli
Description: as §1

Pseudmonas aeruginosa = experiment: standard plate dilution method, Pseudomonas aeruginosa
Description: as §1

Mima polymorpha = experiment: standard plate dilution method, Mima polymorpha
Description: as §1

Herellea vaginicola = experiment: standard plate dilution method, Herellea vaginicola
Description: as §1

Row | Structure (SMILES) | Microorganism SS (growth inhibition) (Streptococcus Sp) | Microorganism SA (growth inhibition) (Staphylococcus aureus) | Microorganism BS (growth inhibition) (Bacillus Subtilus) | Microorganism EC (growth inhibition) (Escherichia coli) | Microorganism PA (growth inhibition) (Pseudmonas aeruginosa) | Microorganism MP (growth inhibition) (Mima polymorpha) | Microorganism HV (growth inhibition) (Herellea vaginicola)
1 | O=C(O)c1cn2c3c(cccc3c1=O)OCC2 [Example 18, 2,3-dihydro-7-oxo-7H-pyrido[1,2,3-de]-1,4-benzoxazine-6-carboxylic acid] | - | - | + | - | - | - | -
2 | Cc1cc2c3c(c1)c(=O)c(C(=O)O)cn3C(C)CO2 (stereo not drawn) [Example 16, 2,3-dihydro-3,9-dimethyl-7-oxo-7H-pyrido[1,2,3-de]-1,4-benzoxazine-6-carboxylic acid] | + | + | + | + | - | - | +
3 | CCOC(=O)c1cn2c3c(cc(Cl)cc3c1=O)OCC2C (stereo not drawn) [Example 4, ethyl 9-chloro-2,3-dihydro-3-methyl-7-oxo-7H-pyrido[1,2,3-de]-1,4-benzoxazine-6-carboxylate] | - | + | + | + | - | - | +
4 | CC1COc2c(Cl)ccc3c(=O)c(C(=O)O)cn1c23 (stereo not drawn) [Example 22, 10-chloro-2,3-dihydro-3-methyl-7-oxo-7H-pyrido[1,2,3-de]-1,4-benzoxazine-6-carboxylic acid] | + | + | + | + | + | + | +
5 | Cc1cc(Cl)c2c3c1c(=O)c(C(=O)O)cn3C(C)CO2 (stereo not drawn) [Example 37 (acid)] | + | + | + | + | + | + | +
6 | CC1COc2c(Cl)cc([N+](=O)[O-])c3c(=O)c(C(=O)O)cn1c23 (stereo not drawn) [Example 38 (acid)] | - | + | + | + | - | - | +
7 | CC1COc2ccc(Cl)c3c(=O)c(C(=O)O)cn1c23 (stereo not drawn) [Example 17, 8-chloro-2,3-dihydro-3-methyl-7-oxo-7H-pyrido[1,2,3-de]-1,4-benzoxazine-6-carboxylic acid] | + | - | + | + | - | - | +
8 | Cc1cc(C)c2c(=O)c(C(=O)O)cn3c2c1OCC3C (stereo not drawn) [Example 42 (acid)] | + | + | + | + | + | + | +
9 | CCOC(=O)c1cn2c3c(ccc(F)c3c1=O)OCC2C (stereo not drawn) [Example 5, ethyl 2,3-dihydro-8-fluoro-3-methyl-7-oxo-7H-pyrido[1,2,3-de]-1,4-benzoxazine-6-carboxylate] | - | - | + | + | - | - | +
10 | Cc1cc(Cl)c2c(=O)c(C(=O)O)cn3c2c1OCC3C (stereo not drawn) [Example 41 (acid)] | - | + | + | + | - | - | +
11 | CC1COc2ccc([N+](=O)[O-])c3c(=O)c(C(=O)O)cn1c23 (stereo not drawn) [Example 44, 2,3-dihydro-3-methyl-8-nitro-7-oxo-7H-pyrido[1,2,3-de]-1,4-benzoxazine-6-carboxylic acid] | - | + | + | + | - | - | +
12 | CC1COc2cccc3c(=O)c(C(=O)O)cn1c23 (stereo not drawn) [Example 19, 2,3-dihydro-3-methyl-7-oxo-7H-pyrido[1,2,3-de]-1,4-benzoxazine-6-carboxylic acid] | - | + | + | + | - | - | +
13 | CCOC(=O)c1cn2c3c(c(C)ccc3c1=O)OCC2C (stereo not drawn) [Example 39 (ester)] | + | - | - | + | + | - | -
14 | Cc1cc2c3c(c1C)c(=O)c(C(=O)O)cn3C(C)CO2 (stereo not drawn) [Example 40 (acid)] | + | + | + | + | + | + | +
15 | O=C(O)c1cn2c3c(cc(F)cc3c1=O)OCC2 [Example 43 (acid)] | + | + | + | + | - | - | +
16 | CC1COc2ccc(F)c3c(=O)c(C(=O)O)cn1c23 (stereo not drawn) [Example 25, 8-fluoro-2,3-dihydro-3-methyl-7-oxo-7H-pyrido[1,2,3-de]-1,4-benzoxazine-6-carboxylic acid] | + | - | + | + | - | - | +
17 | CCOC(=O)c1cn2c3c(c(C)cc(Cl)c3c1=O)OCC2C (stereo not drawn) [Example 41 (ester)] | - | + | + | + | - | - | +
18 | CC1COc2cc(Cl)cc3c(=O)c(C(=O)O)cn1c23 (stereo not drawn) [Example 23, 9-chloro-2,3-dihydro-3-methyl-7-oxo-7H-pyrido[1,2,3-de]-1,4-benzoxazine-6-carboxylic acid] | + | + | + | + | - | - | +
19 | CC1COc2cc(F)cc3c(=O)c(C(=O)O)cn1c23 (stereo not drawn) [Example 24, 9-fluoro-2,3-dihydro-3-methyl-7-oxo-7H-pyrido[1,2,3-de]-1,4-benzoxazine-6-carboxylic acid] | + | + | + | + | + | - | +
20 | CCOC(=O)c1cn2c3c(cc(F)cc3c1=O)OCC2C (stereo not drawn) [Example 6, ethyl 2,3-dihydro-9-fluoro-3-methyl-7-oxo-7H-pyrido[1,2,3-de]-1,4-benzoxazine-6-carboxylate] | - | + | + | + | + | - | +
21 | COc1cc2c3c(c1)c(=O)c(C(=O)O)cn3C(C)CO2 (stereo not drawn) [Example 20, 2,3-dihydro-9-methoxy-3-methyl-7-oxo-7H-pyrido[1,2,3-de]-1,4-benzoxazine-6-carboxylic acid] | - | + | + | + | - | - | +
